Data reported in patent US20150272931A1, “New Treatment” (priority 2012, published 2015).

Test system: sea lice (L. salmonis)
Assay: In-feed treatment of sea lice infested salmon: efficacy
Format: in vivo, Lepeophtheirus salmonis on Atlantic salmon
Details: for Reduction of total sea lice: adult sea lice, lice examined ten days after end of treatment
Text: In-feed treatment of sea lice infested salmon with 5 different neonicotinoids (a) Method: Atlantic salmon (estimated mean weight 50-100 g) were batch weighed and allocated to a single 2 m diameter challenge tank. Fish were challenged with sea lice (L. salmonis) copepodids. Within one week of the successful lice challenge, fish were randomly allocated from the 2 m challenge tank to 1 m diameter treatment tanks so that each tank contained thirty fish.
Fish were maintained until lice developed to adult stages. This was monitored by periodic examination of fish from the control tank. There were five test compounds acetamiprid (A), clothianidin (B), imidacloprid (C), nitenpyram (D) plus a control (E), each compound was tested at three doses. Experimental diets were prepared by top dressing feed pellets with the powder formulation and sealing with fish oil. Once lice had developed to adult stages, fish in all tanks received an in-feed treatment according to the relevant group for a period of seven days. Uneaten feed was collected daily to estimate the mean dose achieved in each group. Fish were examined for lice ten days following the end of the treatment period.
Following the 7day treatment period, the mean sea lice count in the control group was 7±3 adult sea lice meaning the total of adult males, adult non-ovigerous females and adult ovigerous females.

[1] = dose 1 mg/kg/day in feed for 7 days
[2] = dose 5 mg/kg/day in feed for 7 days
[3] = dose 10 mg/kg/day in feed for 7 days

Structure (SMILES) | Reduction of total sea lice [1] [%] | Reduction of total sea lice [2] [%] | Reduction of total sea lice [3] [%] | sea lice reduction efficacy (at all three selected concentrations (10, 5, 1 mg/kg/day)) [%] | sea lice elimination (in-feed treatment, summary statement)
C/C(=N\C#N)N(C)Cc1ccc(Cl)nc1 [Acetamiprid, acetamiprid] | 53 | 64 | 85 |  | 
CN/C(=N\[N+](=O)[O-])NCc1cnc(Cl)s1 [Clothianidin, (E)-1-(2-Chlor-1,3-thiazol-5-ylmethyl)-3-methyl-2-nitroguanidin] | 90 | 98 | 99 | ≥ 90 | full sea lice elimination
CCN(Cc1ccc(Cl)nc1)/C(=C/[N+](=O)[O-])NC [Nitenpyram, nitenpyram] | 48 | 89 | 89 |  | 
O=[N+]([O-])NC1=NCCN1Cc1ccc(Cl)nc1 [Imidacloprid, imidacloprid] | 91 | 94 | 81 |  | 
